Here are results for 10 compounds from article PMC12030062, “From In Vitro Cytotoxicity to In Vivo Zebrafish Assays: A Study on 3,3-Dichloro β-, γ- and δ-Lactams and Their Biological Activity Profiles” (Pharmaceuticals, 2025).

The subject of series [1] is A431 cell line (squamous cell carcinoma). In words: Cell viability, MTT assay, A431. It counts as cell-based. To be noted: for IC50: Homo sapiens; for SI250, pseudo-selectivity index (MTT): 250 µg/mL, 24 h, A431 vs 3T3, MTT; for SI (MTT), selectivity index: SI = IC50 (3T3)/IC50 (A431); for selective cytotoxicity, A431 in comparison with 3T3 cells: lower IC50 for A431 than 3T3. The protocol: (§1) Two different endpoints, 3-(4,5-dimethyl-2-thiazolyl)-2,5-diphenyltetrazolium bromide (MTT) and neutral red uptake (NRU), were used to assess differences in cell-induced cytotoxicity. […] In addition, NRU evaluates the interaction of these drugs with the plasmatic membrane. Cell responses were determined from the MTT [16] and NRU [17] assays, using the two proposed cell lines. Cytotoxicity assays were performed at concentrations equal to 80 and 250 µg/mL. The IC50 value, referring to the half-maximal inhibitory concentration, was determined as a key parameter in cytotoxicity studies (Table 1). It plays a crucial role in evaluating cell viability and assessing cellular responses to various drugs or toxins. For cases where IC50 values were below 80 µg/mL, additional studies at lower concentrations were conducted to accurately determine these values. […] The selectivity index (SI), used as a measurement of action against the tumor cell line in comparison with a normal cell line, was also included.
(§2) • In Vitro Assay Using Human Erythrocytes • - Acquisition and Extraction of the Erythrocytes Human blood samples were obtained from the Banc de Sang i Teixits de Barcelona (Spain) from the Catalan Department of Health. Blood was deposited in tubes with the anticoagulant EDTA-K3. Blood samples were centrifuged at 3000 rpm and 4 °C for 10 min (Megafuge 2.0 R. Heraeus Instruments, Hanau, Germany) to induce sedimentation. Plasma was extracted with a Pasteur pipette. Next, the residual pellet was washed with PBS at pH 7.4. This procedure was repeated three times to remove residual leukocytes and platelets and to concentrate the erythrocytes. Following the last wash, the erythrocyte suspension was diluted (1:1) in PBS at pH 7.4 to obtain a suitable erythrocyte suspension (cell density of 8 × 10^9 cell/mL). • - Hemolysis Assay The hemolysis assay determined the capability of different compounds to induce the hemolysis of the erythrocyte membrane. Stock solutions of each compound at 1 mg/mL in PBS at pH 7.4 were prepared. Different volumes (10–80 μL) were placed in polystyrene tubes, and an aliquot of 25 µL of the erythrocyte suspensions was added to each tube. The final volume was 1 mL. The tubes were incubated at room temperature under rotatory conditions. Then, the tubes were centrifuged at 10,000 rpm for 5 min. The supernatants’ absorbance at 540 nm (Shimadzu UV-160A, Shimadzu, Duisburg, Germany) was compared with that of the positive (erythrocytes hemolyzed with distilled water) and negative (erythrocyte suspension in PBS at pH 7.4) controls. The degree of hemolysis was determined using the following equation: Hemolysis (%) = 100 × (Abs − Abs0)/(Abs100 − Abs0) where Abs, Abs0, and Abs100 are the absorbance of the test samples, of the suspension treated with isotonic phosphate–buffered saline (PBS), and of the suspension of complete hemolysis treated with distilled water, respectively. • In Vitro Essay Using Cell Cultures The murine Swiss albino fibroblasts (3T3) and the squamous cell carcinoma (A431) cell lines were obtained from Celltec UB. Cells were grown in DMEM medium (4.5 g/L glucose) supplemented with 10% (v/v) FBS, 2 mM L-glutamine, 100 U/mL penicillin, and 100 µg/mL streptomycin at 37 °C with 5% CO2. Cells were routinely cultured in 75 cm^2 culture flasks and were trypsinized using trypsin–EDTA when the cells reached approximately 80% confluence. The trypan blue assay, which allows for the direct identification and enumeration of the live (unstained) and dead (blue) cells in the cell population, was used to evaluate the viability of the cells in the cell suspension obtained. • - Cell Viability Assays Cell lines of 3T3 (1 × 10^5 cells/mL) and A431 (5 × 10^4 cells/mL) were grown at defined densities in the 60 central wells of a 96-well plate. The cells were incubated for 24 h in 5% CO2 at 37 °C. […]
A general note: Formazan colour is commonly taken as a measure of viable cells.

The nature of series [2]: Hemolysis assay with human erythrocytes. To be noted: human, washed human erythrocyte suspension, pH 7.4, read-out: degree of hemolysis. It counts as cell-based. The protocol:
(§3) In this context, non-hemolytic compounds are essential, as they enhance the safety and efficacy of lactam-based drugs by reducing adverse effects while maintaining their antitumor activity. In accordance with EU regulations (ISO 10993-4), the assessment of the biological compatibility of new compounds that may come into contact with the blood necessitates in vitro hemocompatibility evaluations. In this study, the extent of hemolysis induced by the different compounds was assessed by incubating them with an erythrocyte suspension. The hemolytic response of compounds 1–10 was evaluated at two concentrations (10 and 80 µg/mL), the results of which are presented in Figure 3.
as §2, with “°C. Then, the spent medium was removed, and the cells were incubated for 24 h, with their corresponding compound solutions (1 mg/mL) previously diluted in a minimum amount of DMF (dimethylformamide) and then in DMEM medium supplemented with 5% FBS (100 µL) at the required concentration range (80 or 250 µg/mL).” for “°C.”

Another series has as its system human erythrocytes. Nature of the series: Hemolysis assay with human erythrocytes. To be noted: from 10 to 80 µg/mL. The series is classed as cell-based. As to the method: as §3
as §2, with “°C. Then, the spent medium was removed, and the cells were incubated for 24 h, with their corresponding compound solutions (1 mg/mL) previously diluted in a minimum amount of DMF (dimethylformamide) and then in DMEM medium supplemented with 5% FBS (100 µL) at the required concentration range (80 or 250 µg/mL).” for “°C.”

For series [3], the system named is A431 cell line (squamous cell carcinoma). Nature of the series: Cell viability, NRU assay, A431. It counts as cell-based, human. To be noted: for SI250, pseudo-selectivity index (NRU): 250 µg/mL, 24 h, A431 vs 3T3, NRU; for IC50: Homo sapiens, A-431, 24 h, 24 h incubation, NRU endpoint, A431. As to the method:
as §1, §2

Series [4] deals with murine Swiss albino fibroblast (3T3) cell line. In words: Cell viability, MTT assay, 3T3. To be noted: Mus musculus, 24 h, 24 h incubation, MTT endpoint. It counts as cell-based. The protocol: as §1, §2
For series [5] the test system is unchanged. Nature of the series: Cell viability, NRU assay, 3T3. The series is classed as cell-based. As to conditions: Mus musculus, 24 h incubation, NRU endpoint. As to the method: as §1, §2
A further series has as its system Zebrafish. As to conditions: cited from earlier work.
Setting [6] is: A-431, 24 h, 24 h incubation, MTT endpoint, A431, read-out: IC50 (MTT) A431.
[7] abbreviates: A-431, A431 and 3T3, MTT and NRU, summarised in text, read-out: IC50 values.

Molecules are shown by their SMILES. ≈ marks a conversion by molar mass, not a printed value. Like-named read-outs stand apart in the source and are kept apart here.

`CC(C)(C)N1C(=O)[C@@H](Cl)[C@@H]2[C@H](Cl)CCC[C@@H]21` [Compound 3]: the IC50 in series [1] (setting [6]) is 250 ± 2.11 µg/mL (≈ 946 µM); in series [3] it was over 250 µg/mL; in series [4] it was 183 ± 3.11 µg/mL (≈ 694 µM); in series [5], over 250 µg/mL. The hemolysis at 10 µg/mL in series [2] came out at 0.1%. Besides, the “change of hemolytic response as concentration increased” value (shortened to “change … as concentration increased”) in the series with human erythrocytes was “doubled”. Moreover, the “SI250, pseudo-selectivity index (NRU)” value in series [3] is “highest SI250 values”.

As to `CC1CN(C(C)(C)C)C(=O)C1(Cl)Cl` (stereo not shown) [Compound 4], the IC50 in series [1] (setting [6]), in series [3], in series [4] and in series [5] was over 250 µg/mL in each case. The “change … as concentration increased” value with human erythrocytes is reported as “remained stable”.

Consider `C=C(Br)CN1CC(C)C(Cl)(Cl)C1=O` (stereo not shown) [Compound 5], for which the IC50 is 250 ± 1.32 µg/mL (≈ 871 µM) in series [1] (setting [6]); over 250 µg/mL in series [1] (setting [7]); over 250 µg/mL in series [3]; over 250 µg/mL in series [4]; 250 µg/mL (≈ 871 µM) in series [5].

For the compound `CC1CN(C2CCC(=O)CC2)C(=O)C1(Cl)Cl` (stereo not shown) [Compound 6], the IC50 in series [1] (setting [6]), in series [3], in series [4] and in series [5] was over 250 µg/mL throughout. Also, in the series with human erythrocytes, the “change … as concentration increased” value is on record as “remained stable”. Besides, the “SI250, pseudo-selectivity index (NRU)” value in series [3] is “highest SI250 values”.

With `CC(C)(C)N1CC(C)(C)C(Cl)(Cl)C1=O` [Compound 7], in series [1], the “SI250, pseudo-selectivity index (MTT)” value is reported as “above 1.5”. Further, the IC50 in series [1] (setting [6]) was 230 ± 2.54 µg/mL (≈ 967 µM); in series [3], over 250 µg/mL; in series [4], over 250 µg/mL; in series [5], over 250 µg/mL. Further, the “SI (MTT), selectivity index” value in series [1] is given as over 1.08. Further, the “selective cytotoxicity, A431 in comparison with 3T3 cells” value (“selective cytotoxicity, A431” for short) in series [1] was “some selective cytotoxicity”. In the series on human erythrocytes, the “change … as concentration increased” value is “remained stable”.

As for `CC(C)(C)N1C(=O)[C@@H](Cl)[C@@H]2CCCC[C@@H]21` [Compound 8], the IC50 in series [1] (setting [6]) is 250 ± 1.78 µg/mL (≈ 1090 µM); in series [1] (setting [7]), over 250 µg/mL; in series [3], over 250 µg/mL; in series [4], over 250 µg/mL; in series [5] it was over 250 µg/mL. In series [1], the “SI (MTT), selectivity index” value is over 1.0. Besides, in series [2], the hemolysis at 10 µg/mL is 0.1%. Further, in the series on human erythrocytes, the “change … as concentration increased” value is reported as “doubled”.

As to `CC1CCN(C(C)(C)C)C(=O)C1(Cl)Cl` (stereo not shown) [Compound 9], the “SI250, pseudo-selectivity index (MTT)” value in series [1] is listed as “above 1.5”. In addition, the IC50 in series [1] (setting [6]) is 242.9 ± 1.78 µg/mL (≈ 1020 µM); in series [3], over 250 µg/mL; in series [4] it was over 250 µg/mL; in series [5], over 250 µg/mL. Besides, the “selective cytotoxicity, A431” value in series [1] was “some selective cytotoxicity”. The hemolysis at 10 µg/mL in series [2] was determined as 0.1%. Also, in series [2] (80 µg/mL), the hemolysis at 80 µg/mL was about 0.7%. Moreover, the “change … as concentration increased” value in the series on human erythrocytes was “fivefold”.

As to `O=C1N(Cc2ccccc2)[C@H]2CCC[C@H](C2)C1(Cl)Cl` [Compound 10], the IC50 was 238.3 ± 1.56 µg/mL (≈ 799 µM) in series [1] (setting [6]), over 250 µg/mL in series [3], over 250 µg/mL in series [4] and over 250 µg/mL in series [5]. Further, the “selective cytotoxicity, A431” value in series [1] is given as “some selective cytotoxicity”. In series [2], the hemolysis at 10 µg/mL amounted to 0.02%. Besides, the “change … as concentration increased” value in the series on human erythrocytes was “remained stable”. Moreover, in series [3], the “SI250, pseudo-selectivity index (NRU)” value was “highest SI250 values”.

`COc1cccc2c1C(=O)c1c(O)c3c(c(O)c1C2=O)C[C@@](O)(C(=O)CO)C[C@@H]3O[C@H]1C[C@H](N)[C@H](O)[C@H](C)O1` [doxorubicin]: in the series with Zebrafish (Zebrafish embryos), the acute toxicity is reported as 5.6 µg/mL.

`CC(=O)O[C@H]1C(=O)[C@@]2(C)[C@H]([C@H](OC(=O)c3ccccc3)[C@]3(O)C[C@H](OC(=O)[C@H](O)[C@@H](NC(=O)c4ccccc4)c4ccccc4)C(C)=C1C3(C)C)[C@]1(OC(C)=O)CO[C@@H]1C[C@@H]2O` [taxol]: the acute toxicity in the series with Zebrafish (Zebrafish) is 1.05 µg/mL.

One may read the IC50 as the concentration that inhibits the measured activity by half.
